Laboratory results: ChEMBL document CHEMBL1147715, “Gatifloxacin derivatives: synthesis, antimycobacterial activities, and inhibition of Mycobacterium tuberculosis DNA gyrase” (Bioorg Med Chem Lett, 2006)
Values after ≈ are worked out from the molar mass of the structure shown.

What was measured:
[1] = system: Mycobacterium tuberculosis; experiment: Activity against Mycobacterium tuberculosis ATCC 35801 in CD1 mouse at 50 mg/kg assessed as decrease in bacterial load in lung relative to control; format: functional
[2] = system: Mycobacterium tuberculosis; experiment: Antimycobacterial activity against Mycobacterium tuberculosis H37Rv; format: functional
[3] = Inhibition of Mycobacterium tuberculosis DNA gyrase
[4] = system: Mycobacterium tuberculosis; experiment: Activity against Mycobacterium tuberculosis ATCC 35801 in CD1 mouse at 50 mg/kg assessed as decrease in bacterial load in spleen relative to control; format: functional
[5] = system: Vero; experiment: Cytotoxicity against Vero cell line at 62.5 ug/ml after 72 hrs; format: functional, cell-based; conditions: Chlorocebus sabaeus
[6] = system: Mycobacterium tuberculosis; experiment: Selectivity index (IC50/MIC); format: functional

SMILES	Log10 cfu [1]	MIC [2] [µg/mL]	IC50 [3] [µg/mL]	Log10 cfu [4]	Activity [5]	Selectivity index [6]
COc1c(N2CCNC(C)C2)c(F)cc2c(=O)c(C(=O)O)cn(C3CC3)c12 (centres undefined) [GATIFLOXACIN]	5.82	0.2 (≈ 0.533 µM)	4 (≈ 10.7 µM)	6.14	–	–
COc1c(N2CCN(CN3C(=O)/C(=N\c4ccc(S(=O)(=O)Nc5ncccn5)cc4)c4cc(F)ccc43)C(C)C2)c(F)cc2c(=O)c(C(=O)O)cn(C3CC3)c12 (centres undefined)	–	0.2 (≈ 0.255 µM)	6 (≈ 7.65 µM)	–	Not toxic	–
COc1c(N2CCN(Cn3c(O)c(/N=N/C(N)=O)c4cc(F)ccc43)C(C)C2)c(F)cc2c(=O)c(C(=O)O)cn(C3CC3)c12 (centres undefined)	–	0.2 (≈ 0.328 µM)	4 (≈ 6.56 µM)	–	Not toxic	–
COc1c(N2CCN(Cn3c(O)c(/N=N/C(=O)c4ccncc4)c4cc(F)ccc43)C(C)C2)c(F)cc2c(=O)c(C(=O)O)cn(C3CC3)c12 (centres undefined)	–	0.78 (≈ 1.16 µM)	–	–	Not toxic	–
COc1c(N2CCN(Cn3c(O)c(/N=N/C(=N)S)c4ccccc43)C(C)C2)c(F)cc2c(=O)c(C(=O)O)cn(C3CC3)c12 (centres undefined)	–	0.2 (≈ 0.329 µM)	5 (≈ 8.23 µM)	–	Not toxic	–
COc1c(N2CCN(CN3C(=O)/C(=N\c4ccc(S(=O)(=O)Nc5ncccn5)cc4)c4ccccc43)C(C)C2)c(F)cc2c(=O)c(C(=O)O)cn(C3CC3)c12 (centres undefined)	–	0.2 (≈ 0.261 µM)	8 (≈ 10.4 µM)	–	Not toxic	–
COc1c(N2CCN(Cn3c(O)c(/N=N/C(=N)S)c4cc(Cl)ccc43)C(C)C2)c(F)cc2c(=O)c(C(=O)O)cn(C3CC3)c12 (centres undefined)	–	0.39 (≈ 0.607 µM)	4 (≈ 6.23 µM)	–	Not toxic	–
COc1c(N2CCN(Cn3c(O)c(/N=N/C(=N)S)c4cc(F)ccc43)C(C)C2)c(F)cc2c(=O)c(C(=O)O)cn(C3CC3)c12 (centres undefined)	–	0.1 (≈ 0.16 µM)	8 (≈ 12.8 µM)	–	Not toxic	–
COc1c(N2CCN(Cn3c(O)c(/N=N/C(N)=O)c4ccccc43)C(C)C2)c(F)cc2c(=O)c(C(=O)O)cn(C3CC3)c12 (centres undefined)	4.26	0.0125 (≈ 0.0211 µM)	3 (≈ 5.07 µM)	5.08	Not toxic	> 1250
COc1c(N2CCN(Cn3c(O)c(/N=N/C(=O)c4ccncc4)c4cc(C)ccc43)C(C)C2)c(F)cc2c(=O)c(C(=O)O)cn(C3CC3)c12 (centres undefined)	–	0.78 (≈ 1.17 µM)	5.5 (≈ 8.24 µM)	–	Not toxic	–
COc1c(N2CCN(CN3C(=O)/C(=N\c4ccc(S(=O)(=O)Nc5ncccn5)cc4)c4cc(Cl)ccc43)C(C)C2)c(F)cc2c(=O)c(C(=O)O)cn(C3CC3)c12 (centres undefined)	–	0.1 (≈ 0.125 µM)	6 (≈ 7.49 µM)	–	Not toxic	–
COc1c(N2CCN(Cn3c(O)c(/N=N/C(=N)S)c4cc(C)ccc43)C(C)C2)c(F)cc2c(=O)c(C(=O)O)cn(C3CC3)c12 (centres undefined)	–	0.78 (≈ 1.25 µM)	10 (≈ 16.1 µM)	–	Not toxic	–
COc1c(N2CCN(Cn3c(O)c(/N=N/C(=O)c4ccncc4)c4cc(Cl)ccc43)C(C)C2)c(F)cc2c(=O)c(C(=O)O)cn(C3CC3)c12 (centres undefined)	–	0.39 (≈ 0.567 µM)	5 (≈ 7.27 µM)	–	Not toxic	–
COc1c(N2CCN(Cn3c(O)c(/N=N/C(N)=O)c4cc(C)ccc43)C(C)C2)c(F)cc2c(=O)c(C(=O)O)cn(C3CC3)c12 (centres undefined)	–	0.39 (≈ 0.644 µM)	4.5 (≈ 7.43 µM)	–	Not toxic	–
COc1c(N2CCN(CN3C(=O)/C(=N\c4ccc(S(=O)(=O)Nc5ncccn5)cc4)c4cc(C)ccc43)C(C)C2)c(F)cc2c(=O)c(C(=O)O)cn(C3CC3)c12 (centres undefined)	–	0.1 (≈ 0.128 µM)	3 (≈ 3.84 µM)	–	Not toxic	–
COc1c(N2CCN(Cn3c(O)c(/N=N/C(N)=O)c4cc(Cl)ccc43)C(C)C2)c(F)cc2c(=O)c(C(=O)O)cn(C3CC3)c12 (centres undefined)	–	0.39 (≈ 0.623 µM)	4 (≈ 6.39 µM)	–	Not toxic	–
COc1c(N2CCN(Cn3c(O)c(/N=N/C(=O)c4ccncc4)c4ccccc43)C(C)C2)c(F)cc2c(=O)c(C(=O)O)cn(C3CC3)c12 (centres undefined)	–	0.78 (≈ 1.19 µM)	4 (≈ 6.12 µM)	–	Not toxic	–
